Measured values taken from US20050014181A1, “Methods and compositions for the assessment of polymer assembly” (priority 2003, published 2005).

Columns and labels:
[1] = system: SMC-mediated collagen fibrillogenesis; test: Treatment effects on SMC-mediated collagen fibrillogenesis (FITC-labeled collagen assembly assay, fluorescence plate reader); assay type: cell-based, mouse; parameters: % fibrillogenesis of no treatment control / effect of treatment on SMC-assisted collagen fibrillogenesis (FIG. 5A-B) / effect of treatment on collagen fibrils (FIG. 5C): unit of the concentration uncertain; details: for % fibrillogenesis of no treatment control: 1 (unit uncertain) of compound (smallest concentration used), green fluorescence normalized by cell density
Experimental: (§1) In one embodiment, the assay consists of adding a solution of FITC-labeled protein to cultured cells in the presence or absence of various treatments, then returning the cells to the incubator (37° C., 5% CO2) for various periods of time. Supramolecular protein assembly can be followed in time as a gain of fluorescence using a fluorescence plate reader, or by confocal microscopy with live cells or after fixation of cells. Specifically, for the development of this assay, SMC were used that had been plated into black clear-bottomed 96-well tissue culture-treated plates (Fisher) at 10,000 cells per well in 100 µL of DMEM+10% FBS 2 days prior to performing the assay.
After 24 h, the culture medium was changed to DMEM without FBS to promote cell quiescence, then SMC were returned to the incubator (37° C., 5% CO2) for an additional 24 h. Before the start of the assay, the culture medium was aspirated from each well and replaced with 100 µL of FITC-labeled collagen, BSA, or denatured collagen in DMEM without FBS, final concentration between […]. The cells were returned to the incubator for time periods up to 24 h.
(§2) At the end of the assay, the culture medium was aspirated and replaced with 10% buffered formalin (Fisher) for 10 min. For normalization of results, cell nuclei were counterstained using HOECHST [500 ng/mL in phosphate-buffered saline (PBS), pH 7.4] for 5 min. The wells subsequently were washed two times with PBS, then 100 µL of PBS were added to each well and the intensity of the fluorescence was measured with a fluorescence plate reader (CytoFluor® series 4000, PerSeptive Biosystems) using the following settings for protein assembly: ex=480 nm, em=530 nm, gain 85, and ex=360 nm, em=460 nm, gain 80 for cell nuclei.
In each quantitative assay, twelve wells of a 96-well plate were used for each condition. Average background readings were obtained from wells without cells or without labeled collagen monomer solution (six each) to ensure that the assay measured only the cell-assisted protein assembly.
To assess the ability of our assay to detect the effects of treatments that interfere with cell cytoskeleton, and therefore may affect fibrillogenesis, SMC were pretreated with […] of cytochalasin D, a chemical that disrupts organization of the actin cytoskeleton, for 30 min prior to the assay. The same concentrations were maintained throughout the assay. Retinoic acid, which has the opposite effect, stiffening SMC cytoskeleton, was added at […] of final concentrations.
To test whether the assay can detect formation of fibrils by incorporating de novo synthesized endogenous collagen, effect of treatments that should directly affect this process were investigated. Ascorbic acid, which enhances the triple helix organization of de novo synthesized collagen, was added at 5, 10, and 50 µM of final concentrations to the SMC culture medium for 24 h prior to the assay and maintained throughout the assay. Homocysteine thiolactone, which is a lysyl oxidase inhibitor and thus impairs the higher organization of collagen, was used at 5, 10, 50, 100, and 500 µM of final concentration in the SMC culture media. To assess the potential effects of these treatments, fibrillogenesis was calculated as the percentage of fibrillogenesis mediated by nontreated SMC.

[2] = system: mouse aortic SMC; test: Protein assembly assay: FITC-labeled protein added to mouse aortic SMC (plate reader / fluorescence microscopy); assay type: cell-based; details: labeled protein incubated with SMC for 24 h
Experimental: as §1, with “assay. […]” for “assay.”
as §2, with “For normalization of results, cell nuclei were counterstained using HOECHST [500 ng/mL in phosphate-buffered saline (PBS), pH 7.4] for 5 min.” left out
In each quantitative assay, twelve wells of a 96-well plate were used for each condition. […]

[3] = system: SMC; test: SDS-PAGE / phosphoimager detection of FITC-labeled protein recovered after incubation with SMC; assay type: cell-based; details: 50 or 100 mg/mL, 24 h with SMC in culture
Experimental: SMC were plated in 6-well tissue culture plates at a density of 500,000 cells per well. After 24 h, the media was aspirated and replaced with 1 mL of serum-free media containing 50 or 100 µg/mL of FITC-labeled BSA, collagen, or denatured collagen and placed back in a 37° C., 5% CO2 incubator for 24 h for assembly. The SMC cultured with labeled proteins then were rinsed twice with PBS, after which cell extracts were taken using […] of acidified (0.02M of acetic acid) lysis buffer. Samples […] from each condition before and after culturing with SMC were run on an 1.5-mm SDS-PAGE gel (Biorad apparatus) for 2 h at 150 V. FITC-labeled protein bands were imaged using a phosphoimager (Storm 860, Molecular Dynamics) with the ability to detect green fluorescence.

## O=C1O[C@H]([C@@H](O)CO)C(O)=C1O [ascorbic acid, Ascorbic acid]
[1]; 5, 10, 50 (unit uncertain), added 24 h prior to the assay and maintained throughout
  effect of treatment on collagen fibrils (FIG. 5C): moderate, yet statistically significant, enhancement of collagen fibrils

## C=C1[C@@H](C)[C@H]2[C@H](Cc3ccccc3)NC(=O)[C@]23[C@H](OC(C)=O)/C=C/[C@@](C)(O)C(=O)[C@@H](C)C/C=C/[C@H]3[C@@H]1O [cytochalasin D, Cytochalasin D]
[1]
  % fibrillogenesis of no treatment control: 12.1±1.0%
[1]; increasing concentrations (1, 5, 10 (unit uncertain))
  effect of treatment on SMC-assisted collagen fibrillogenesis (FIG. 5A-B): impairs the ability of SMC to facilitate fibrillogenesis

## NC1CCSC1=O (stereo not shown) [homocysteine thiolactone, Homocysteine thiolactone]
[1]; up to concentrations twice the IC50 value (5-500 M), data not shown
  effect on SMC-mediated collagen assembly: no effects

## CC1=C(/C=C/C(C)=C/C=C/C(C)=C/C(=O)O)C(C)(C)CCC1 [retinoic acid, Retinoic acid]
[1]
  % fibrillogenesis of no treatment control: 59.5±9.4%

## labeled BSA: FITC-labeled bovine serum albumin
[2]
  supramolecular assembly seen by fluorescence microscopy: No assembly was detected
[3]
  association of labeled protein with SMC monolayer (SDS-PAGE): neither BSA nor denatured collagen was associated with cells
